Here are results for one compound from patent US11766430B2, “Methods of using a phenoxypropylamine compound to treat pain” (Minerva Neurosciences, Inc., priority 2018, dated 2023).

In assay [1] the test system is chemotherapy-induced peripheral neuropathic pain in rats. Kind of assay: Paclitaxel-induced peripheral neuropathic pain, paw withdrawal threshold with von Frey filaments, single administration (Example 5). It counts as in vivo, Male Sprague Dawley rats. The settings on record: for Paw withdrawal threshold (PWT) compared to vehicle (in words): Day 14; for Paw withdrawal threshold (PWT), Day 14 Avg., Mean: i.p., 2 hours prior to test, Count 12. The procedure: Assessment of neuropathic pain using von Frey filaments was performed. Rats were administered paclitaxel (2 mg/kg) on four alternate days (days 1, 3, 5 and 7). Baseline and post treatment paw withdrawal thresholds (PWT) were evaluated using von Frey filaments (Semmes-Weinstein filaments, Stoelting, Wood Dale, Ill., USA) of varying stiffness (0.4, 0.7, 1.2, 2.0, 3.6, 5.5, 8.5, 10, 15, 26 g). Animals were placed on a perforated metallic platform and allowed to acclimate to their surroundings for a minimum of 15 minutes before each test session. Each filament was presented perpendicular to the plantar surface with sufficient force to cause slight buckling against the paw, and then held until a positive response is noted (paw sharply withdrawn). As described by Chaplan, S. R. et al. “Qualitative Assessment of Tactile Allodynia in the Rat Paw” Journal of Neuroscience Methods, 53 (1994), 55-63 (“Chaplan”), once the threshold was crossed, the 2 responses straddling the threshold are retrospectively designated as the first 2 responses. Four additional responses were measured to stimuli varied sequentially up or down based on the animal's response. The 6 responses in the immediate vicinity of the threshold were used to calculate the 50% g threshold: 50% g threshold=(10^[Xf+k*d])/10000
Xf is the final filament used (in log units). The parameter k is from the Appendix 1 in Chaplan and was determined by the pattern of the von Frey responses (e.g. OXOXOX where ‘O’ indicates no response and ‘X’ denotes a withdrawal). The parameter d is the difference between stimuli which Chaplan used a constant d=0.224. To accommodate for the use of the 10 g and 26 g filaments, the exact difference between stimuli were used.
Male Sprague Dawley rats (from Envigo, Ind., USA) were used in the study. Animals were received at approximately 250 g and housed 3 per cage upon arrival. All rats were examined, handled, and weighed prior to initiation of the study to assure adequate health and suitability. During the course of the study, 12 h/12 h light/dark cycles was maintained. The room temperature was be maintained between 20 and 23° C. with a relative humidity maintained around 50%. Chow and water was provided ad libitum for the duration of the study. All testing was performed during the animal's light cycle phase. Every effort was made to minimize suffering of animals. Rats with baseline PWT less than 12 g were not included in the study. Rats were balanced by body weight and by their pre-paclitaxel PWT values. ANOVA found no significant differences between the treatment groups.
Paclitaxel was purchased from Biolyse Pharma (Ontario, Canada) and was injected i.p. (2 mg/kg) on four alternate days (day 1, 3, 5 and 7) for a total of 4 injections at a dose volume of 1 mL/kg.
Rats were subsequently balanced and assigned to treatment groups based on post-paclitaxel PWT values. On test day, PWT was assessed two hours post vehicle or MIN-117 injections and one hour after gabapentin administration.
Gabapentin was purchased from Toronto Research Chemicals and was dissolved in saline and administered orally 60 minutes prior to test at a dose volume of 1 mL/kg. MIN-117 (1, 3 and 10 mg/kg), formulated in 0.5% (w/v) hydroxypropylmethylcellulose (HPMC, Sigma-Aldrich), was administered i.p. at a dose volume of 1 mL/kg. MIN-117 was administered 2 hours prior to test.

The subject of assay [2] is paclitaxel-induced peripheral neuropathic pain in rats. Kind of assay: Prevention of paclitaxel-induced peripheral neuropathic pain, paw withdrawal threshold, chronic administration (Example 6). Type of assay: in vivo, Male Sprague Dawley rats. The settings on record: for PWT compared to vehicle (in words): days 10 and 14. The procedure: Male Sprague Dawley rats from Envigo were used in the study. Animals were received at approximately 250 g and housed 3 per cage upon arrival. All rats were examined, handled, and weighed prior to initiation of the study to assure adequate health and suitability. During the course of the study, 12/12 light/dark cycles was maintained. The room temperature was be maintained between 20 and 23° C. with a relative humidity maintained around 50%. Chow and water was provided ad libitum for the duration of the study. All testing was performed during the animal's light cycle phase.
Paclitaxel (2 mg/kg) was purchased from Biolyse Pharma and injected i.p. on four alternate days (day 1, 3, 5 and 7) for a total of 4 injections at a dose volume of 1 mL/kg.
Gabapentin (100 mg/kg) was dissolved in saline and administered orally at a dose volume of 1 mL/kg. For prevention study, gabapentin was administered on day 14, sixty minutes prior to test. For reversal study, gabapentin was administered once daily for 2 weeks. On test days it was administered 60 minutes prior to test.
Prevention study: MIN-117 (10 mg/kg) was formulated in 0.5% (w/v) hydroxypropylmethyl cellulose (HPMC) 8°-120 centipoises in water and was administered i.p once daily for 7 or 14 days at a dose volume of 1 mL/kg. On test days, MIN-117 was administered 2 hours prior to test.
Rats were administered paclitaxel (2 mg/kg) on four alternate days (days 1, 3, 5 and 7). Baseline and post treatment Paw Withdrawal Threshold (PWT) were evaluated using von Frey filaments (Semmes-Weinstein filaments, Stoelting, Wood Dale, Ill., USA) of varying stiffness (0.4, 0.7, 1.2, 2.0, 3.6, 5.5, 8.5, 10, 15, 26 g). Animals were placed on a perforated metallic platform and allowed to acclimate to their surroundings for a minimum of 15 minutes before each test session. Each filament was presented perpendicular to the plantar surface with sufficient force to cause slight buckling against the paw, and then held until a positive response is noted (paw sharply withdrawn). As described by Chaplan et al. 1994, once the threshold was crossed, the 2 responses straddling the threshold are retrospectively designated as the first 2 responses. Four additional responses were measured to stimuli varied sequentially up or down based on the animal's response. […] The parameter k is from the Appendix 1 in Chaplan and was determined by the pattern of the von Frey responses (e.g. OXOXOX where ‘O’ indicates no response and ‘X’ denotes a withdrawal). […]
PWT was measured according to the Schematics in FIG. 9 (prevention) and FIG. 10 (reversal study).
Data was analyzed by analysis of variance (ANOVA) followed by post-hoc comparisons where appropriate. […]

“Also recorded” adds a separate entry of the source.

On to `Cc1nnc(-c2cc3c(OC[C@@H](O)CN4CCC(c5ccc(Cl)c(Cl)c5)CC4)cccc3o2)o1.Cl` [MIN-117, (2S)-1-(4-(3,4-dichlorophenyl)piperidin-1-yl)-3-((2-(5-methyl-1,3,4-oxadiazol-2-yl)benzofuran-4-yl)oxy)propan-2-ol hydrochloride], for which the “Paw withdrawal threshold (PWT) compared to vehicle (in words)” value is reported as “did not show a significant increase in PWT” in assay [1] (1 mg/kg i.p. 2 hours prior to test); “significant increase in PWT; also recorded: significantly reduced neuropathic pain” in assay [1] (3 mg/kg i.p. 2 hours prior to test, hydrochloride, 3 mg/kg); “significant increase in PWT; also recorded: significantly reduced neuropathic pain” in assay [1] (10 mg/kg i.p. 2 hours prior to test, hydrochloride, 10 mg/kg). Besides, the “Mean Diff. of Day 14 Avg. PWT, Fisher's PLSD” value in assay [1] (Paclitaxel + Gabapentin (100 mg/kg), Paclitaxel + MIN-117 (1 mg/kg)) was 14.200; in assay [1] (Paclitaxel + Gabapentin (100 mg/kg), Paclitaxel + MIN-117 (3 mg/kg)), 12.775; in assay [1] (Paclitaxel + Gabapentin (100 mg/kg), Paclitaxel + MIN-117 (10 mg/kg)) it was 11.802; in assay [1] (Paclitaxel + MIN-117 (1 mg/kg), Paclitaxel + MIN-117 (3 mg/kg)) it was −1.425; in assay [1] (Paclitaxel + MIN-117 (1 mg/kg), Paclitaxel + MIN-117 (10 mg/kg)), −2.399; in assay [1] (Paclitaxel + Vehicle, Paclitaxel + MIN-117 (1 mg/kg)) it was −1.558. Further, the “Mean Diff. of Day 14 Avg. PWT, Fisher's PLSD” value in assay [1] (Paclitaxel + Vehicle, Paclitaxel + MIN-117 (3 mg/kg)) is reported as −2.984; in assay [1] (Paclitaxel + Vehicle, Paclitaxel + MIN-117 (10 mg/kg)), −3.957. Also, the “Paw withdrawal threshold (PWT), Day 14 Avg., Mean” value was found to be 5.433 g in assay [1] (Paclitaxel + MIN-117 (1 mg/kg)), 6.858 g in assay [1] (Paclitaxel + MIN-117 (3 mg/kg)) and 7.832 g in assay [1] (Paclitaxel + MIN-117 (10 mg/kg)). The “PWT after cessation of treatment (in words)” value in assay [2] (10 mg/kg i.p. for 7 or 14 days, day 21, one week or two weeks after cessation of treatment, hydrochloride) is on record as “no analgesic effects; also recorded: returned to vehicle levels”. The “PWT compared to vehicle (in words)” value is listed as “significantly higher PWT” in assay [2] (10 mg/kg i.p. once daily for one week (7 days) starting one day prior to paclitaxel) and “significantly higher PWT” in assay [2] (10 mg/kg i.p. once daily for two weeks (14 days) starting one day prior to paclitaxel, 2 hours post dosing).
